According to patent publication US20230011571A1, “SMALL MOLECULE FURIN INHIBITORS FOR TREATING INFECTIOUS DISEASES” (BP Asset V, Inc., priority 2019, published 2023):

Key:
Format in all cases: cell-based
[1] = tested on: Chikungunya virus (CHIKV); test: microbe, parasite or virus in culture; details: Chikungunya virus, Vero, 48 h, read-out: Percent viral inhibition CHKV
dengue virus (DENV) = test: microbe, parasite or virus in culture; details: Dengue virus, Vero, 120 h, read-out: Percent viral inhibition DENY
Marburg virus (MARV) = test: organism not typed; details: Vero, 72 h, read-out: Percent viral inhibition MARV

SMILES	inhibition at 1 µM [1]	inhibition at 1 µM (dengue virus (DENV))	inhibition at 1 µM (Marburg virus (MARV))
CC(=O)NCC1CCN(Cc2cc(Oc3cnc(N4CCN(CCC(N)=O)CC4)nc3)nc(-c3cc(Cl)cc(Cl)c3)c2)CC1 [Example 88, 3-(4-(5-((4-((4-(acetamidomethyl)piperidin-1-yl)methyl)-6-(3,5-dichlorophenyl)pyridin-2-yl)oxy)pyrimidin-2-yl)piperazin-1-yl)propanamide]	10.9%	54.6%	58.6%
CC(=O)NCC1CCN(Cc2cc(-c3cc(Cl)cc(Cl)c3)nc(Oc3ccc(N4CCNCC4)nc3)n2)CC1 [Example 90, N-((1-((6-(3,5-dichlorophenyl)-2-((6-(piperazin-1-yl)pyridin-3-yl)oxy)pyrimidin-4-yl)methyl)piperidin-4-yl)methyl)acetamide]	44.2%	54.9%	75.5%
CC(=O)NCC1CCN(Cc2cc(Oc3cnc(N4CCN(CCO)CC4)nc3)nc(-c3cc(Cl)cc(Cl)c3)c2)CC1 [Example 93, N-((1-((2-(3,5-dichlorophenyl)-6-((2-(4-(2-hydroxyethyl)piperazin-1-yl)pyrimidin-5-yl)oxy)pyridin-4-yl)methyl)piperidin-4-yl)methyl)acetamide]	0%	56.7%	10.4%
CNC(=O)CCN1CCN(c2ncc(Oc3cc(CN4CCC(CNC(C)=O)CC4)cc(-c4cc(Cl)cc(Cl)c4)n3)cn2)CC1 [Example 94, 3-(4-(5-((4-((4-(acetamidomethyl)piperidin-1-yl)methyl)-6-(3,5-dichlorophenyl)pyridin-2-yl)oxy)pyrimidin-2-yl)piperazin-1-yl)-N-methylpropanamide]	31.3%	41.5%	66%
CC(=O)NCC1CCN(Cc2cc(Oc3cnc(N4CCN(C(C)CC(N)=O)CC4)nc3)nc(-c3cc(Cl)cc(Cl)c3)c2)CC1 (stereo not drawn) [Example 95]	46.6%	58.1%	59%
CNCc1cc(Oc2ccc(N3CCNCC3)nc2)cc(-c2cc(Cl)cc(Cl)c2)c1 [Example 98, 1-(3′,5′-dichloro-5-((6-(piperazin-1-yl)pyridin-3-yl)oxy)-[1,1′-biphenyl]-3-yl)-N-methylmethanamine]	0%	0%	0%
NCCNc1ccc(Oc2cc(CN3CCOCC3)cc(-c3cc(Cl)cc(Cl)c3)c2)cn1 [Example 99, N1-(5-((3′,5′-dichloro-5-(morpholinomethyl)-[1,1′-biphenyl]-3-yl)oxy)pyridin-2-yl)ethane-1,2-diamine]	0%	15.4%	0%
CC(=O)NCC1CCN(Cc2cc(Oc3ccc(NCC(C)(C)N)nc3)cc(-c3cc(Cl)cc(Cl)c3)c2)CC1 [Example 105, N-((1-((5-((6-((2-amino-2-methylpropyl)amino)pyridin-3-yl)oxy)-3′,5′-dichloro-[1,1′-biphenyl]-3-yl)methyl)piperidin-4-yl)methyl)acetamide]	0%	19.9%	0%
CNCc1cc(Oc2ccc(N3CCC(N)CC3)nc2)nc(-c2cc(C)cc(Cl)c2)c1 [Example 108, 1-(5-((6-(3-chloro-5-methylphenyl)-4-((methylamino)methyl)pyridin-2-yl)oxy)pyridin-2-yl)piperidin-4-amine]	16.4%	0%	65.7%
CC(=O)NCC1CCN(Cc2cc(Oc3cnc(N4CCNCC4)cn3)nc(-c3cc(Cl)cc(Cl)c3)c2)CC1 [Example 109, N-((1-((2-(3,5-dichlorophenyl)-6-((5-(piperazin-1-yl)pyrazin-2-yl)oxy)pyridin-4-yl)methyl)piperidin-4-yl)methyl)acetamide]	7.33%	0%	32.9%
CC(=O)NCC1CCN(Cc2cc(Oc3cnc(N4CCN(C)CC4)cn3)nc(-c3cc(Cl)cc(Cl)c3)c2)CC1 [Example 110, N-((1-((2-(3,5-dichlorophenyl)-6-((5-(4-methylpiperazin-1-yl)pyrazin-2-yl)oxy)pyridin-4-yl)methyl)piperidin-4-yl)methyl)acetamide]	9.88%	13.6%	59.5%
CC(=O)NCC1CCN(Cc2cc(Oc3cnc(N4CCN(CCC(=O)O)CC4)cn3)nc(-c3cc(Cl)cc(Cl)c3)c2)CC1 [Example 111]	22.3%	48.8%	29.8%
O=C(O)CCC1CCN(Cc2cc(Oc3cnc(N4CCN(CCO)CC4)nc3)cc(-c3cc(Cl)cc(Cl)c3)c2)CC1 [Example 114, 3-(1-((3′,5′-dichloro-5-((2-(4-(2-hydroxyethyl)piperazin-1-yl)pyrimidin-5-yl)oxy)-[1,1′-biphenyl]-3-yl)methyl)piperidin-4-yl)propanoic acid]	26.6%	38.1%	74.2%
CC(=O)NCC1CCN(Cc2cc(Oc3ccc(N4CCN(CCC(=O)O)CC4)nc3)nc(-c3cc(F)cc(Cl)c3)c2)CC1 [Example 115, 3-(4-(5-((4-((4-(acetamidomethyl)piperidin-1-yl)methyl)-6-(3-chloro-5-fluorophenyl)pyridin-2-yl)oxy)pyridin-2-yl)piperazin-1-yl)propanoic acid]	4.53%	2.3%	59.2%
CC(=O)NCC1CCN(Cc2cc(Oc3ccc(N4CCN(CCC(=O)O)CC4)nc3)nc(-c3cc(F)cc(Br)c3)c2)CC1 [Example 116]	10.4%	6.7%	4.3%
CN1CCN(c2ncc(Oc3cc(CN4CCC(CC(=O)O)CC4)cc(-c4cc(Cl)cc(Cl)c4)c3)cn2)CC1 [Example 117, 2-(1-((3′,5′-dichloro-5-((2-(4-methylpiperazin-1-yl)pyrimidin-5-yl)oxy)-[1,1′-biphenyl]-3-yl)methyl)piperidin-4-yl)acetic acid]	18%	28.6%	43.6%
CC(=O)NCC1CCN(Cc2cc(Oc3cnc(N4CCCNCC4)nc3)nc(-c3cc(Cl)cc(Cl)c3)c2)CC1 [Example 118, N-((1-((2-((2-(1,4-diazepan-1-yl)pyrimidin-5-yl)oxy)-6-(3,5-dichlorophenyl)pyridin-4-yl)methyl)piperidin-4-yl)methyl)acetamide]	0%	15.6%	0%
O=C(O)COC1CCN(Cc2cc(Oc3cnc(N4CCNCC4)nc3)nc(-c3cc(Cl)cc(Cl)c3)c2)CC1 [Example 122, 2-((1-((2-(3,5-dichlorophenyl)-6-((2-(piperazin-1-yl)pyrimidin-5-yl)oxy)pyridin-4-yl)methyl)piperidin-4-yl)oxy)acetic acid]	35.5%	33.7%	23.6%
O=C(O)CC1CCN(Cc2cc(Oc3cnc(N4CCNCC(O)C4)nc3)nc(-c3cc(Cl)cc(Cl)c3)c2)CC1 (stereo not drawn) [Example 123, 2-(1-((2-(3,5-dichlorophenyl)-6-((2-(6-hydroxy-1,4-diazepan-1-yl)pyrimidin-5-yl)oxy)pyridin-4-yl)methyl)piperidin-4-yl)acetic acid]	19.2%	39.9%	50.6%
